This passage reports MIC results from ChEMBL document CHEMBL3297728, “Synthesis and antituberculosis activity of novel 5-styryl-4-(hetero)aryl-pyrimidines via combination of the Pd-catalyzed Suzuki cross-coupling and S(N)(H) reactions” (Bioorg Med Chem Lett, 2014).

In brackets after ≈: the same amount, converted by molar mass.

The test system of the test is Mycobacterium tuberculosis. The test can be described thus: Antimycobacterial activity against rifampin- and Isoniazid- resistant Mycobacterium tuberculosis Beijing harboring Ser 531-Leu 315 rpoB mutant and Ser-Thr katG mutant after 10 days by microbroth dilution method. Format: functional.
As to `C(=C\c1cncnc1-c1ccc(-c2cccs2)s1)/c1ccc(-c2ccccc2)cc1`, the MIC (as a rule, the lowest concentration that inhibits growth of the organism) was 1.5 µg/mL (≈ 3.55 µM). `Brc1cncnc1-c1cccs1` came in with an MIC of 0.7 µg/mL (≈ 2.9 µM).

For `Brc1cncnc1-c1ccco1`, the MIC was found to be 1.5 µg/mL (≈ 6.67 µM).
